# Test: Anticancer human tumor 997537-175-T-J1-PDC patient-derived colon adenocarcinoma cell line growth inhibition [POLQ]
# Conditions: 997537-175-T-J1-PDC complex spheroid viability, combination with POLQ inhibitors; for IC50: curve of first compound; for viability, T/C: stronger effect = lower value
# Outline: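 PDC + HUVEC + MSC complex spheroids; POLQ inhibitors ± partner drugs; top conc. at/near clinical Cmax, else 10 microM (SN-38 1 microM), half-log dilutions; 37 degrees C, 5% CO2.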
# [1] = second compound 0.0316 µM, first compound 0.0316 µM
# [2] = second compound 0.0316 µM, first compound 0.1 µM
# [3] = second compound 0.0316 µM, first compound 0.316 µM
# [4] = second compound 0.0316 µM, first compound 1 µM
# [5] = second compound 0.1 µM, first compound 0.0316 µM
# [6] = second compound 0.1 µM, first compound 0.1 µM
# [7] = second compound 0.1 µM, first compound 0.316 µM
# [8] = second compound 0.1 µM, first compound 1 µM
# [9] = second compound 0.316 µM, first compound 0.0316 µM
# [10] = second compound 0.316 µM, first compound 0.1 µM
# [11] = second compound 0.316 µM, first compound 0.316 µM
# [12] = second compound 0.316 µM, first compound 1 µM
# [13] = second compound 1 µM, first compound 0.0316 µM
# [14] = second compound 1 µM, first compound 0.1 µM
# [15] = second compound 1 µM, first compound 0.316 µM
# [16] = second compound 1 µM, first compound 1 µM
# [17] = second compound 3.16 µM, first compound 0.0316 µM
# [18] = second compound 3.16 µM, first compound 0.1 µM
# [19] = second compound 3.16 µM, first compound 0.316 µM
# [20] = second compound 3.16 µM, first compound 1 µM
# [21] = second compound 10 µM, first compound 0.0316 µM
# [22] = second compound 10 µM, first compound 0.1 µM
# [23] = second compound 10 µM, first compound 0.316 µM
# [24] = second compound 10 µM, first compound 1 µM
# 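Further: luminescence signal used as a surrogate for viable cells; spheroids exposed to drugs for seven days before readout.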
smiles,measurement,setting,value
COc1cccc(OCCCN)c1-c1cc(Nc2cnc(C#N)cn2)n[nH]1 + Nc1ccc(C#CCN(C(=O)Cc2ncc(C(F)(F)F)cc2C(F)(F)F)c2ccc(F)cc2)nn1,IC50,second compound 0.0316 µM,110 nM
same,IC50,second compound 0.1 µM,72 nM
same,IC50,second compound 0.316 µM,54.4 nM
same,IC50,second compound 1 µM,21.3 nM
same,IC50,second compound 3.16 µM,48.8 nM
same,IC50,second compound 10 µM,20.9 nM
same,"viability, T/C","second compound 0.0316 µM, first compound 0.00316 µM",100%
same,"viability, T/C","second compound 0.0316 µM, first compound 0.01 µM",90.2%
same,"viability, T/C",[1],70.5%
same,"viability, T/C",[2],42.3%
same,"viability, T/C",[3],44%
same,"viability, T/C",[4],17.7%
same,"viability, T/C","second compound 0.1 µM, first compound 0.00316 µM",89.1%
same,"viability, T/C","second compound 0.1 µM, first compound 0.01 µM",96.8%
same,"viability, T/C",[5],70.5%
same,"viability, T/C",[6],43%
same,"viability, T/C",[7],22.2%
same,"viability, T/C",[8],23.2%
same,"viability, T/C","second compound 0.316 µM, first compound 0.00316 µM",103%
same,"viability, T/C","second compound 0.316 µM, first compound 0.01 µM",89.5%
same,"viability, T/C",[9],61.4%
same,"viability, T/C",[10],40.5%
same,"viability, T/C",[11],18%
same,"viability, T/C",[12],41.9%
same,"viability, T/C","second compound 1 µM, first compound 0.00316 µM",89.8%
same,"viability, T/C","second compound 1 µM, first compound 0.01 µM",61.1%
same,"viability, T/C",[13],50.3%
same,"viability, T/C",[14],21.8%
same,"viability, T/C",[15],40.6%
same,"viability, T/C",[16],36.2%
same,"viability, T/C","second compound 3.16 µM, first compound 0.00316 µM",88.4%
same,"viability, T/C","second compound 3.16 µM, first compound 0.01 µM",90.8%
same,"viability, T/C",[17],65.8%
same,"viability, T/C",[18],24.2%
same,"viability, T/C",[19],20.8%
same,"viability, T/C",[20],21.1%
same,"viability, T/C","second compound 10 µM, first compound 0.00316 µM",84%
same,"viability, T/C","second compound 10 µM, first compound 0.01 µM",85.1%
same,"viability, T/C",[21],30.4%
same,"viability, T/C",[22],24.9%
same,"viability, T/C",[23],34.1%
same,"viability, T/C",[24],20.5%
O=C(c1cc(Cc2n[nH]c(=O)c3ccccc23)ccc1F)N1CCN(C(=O)C2CC2)CC1 + Nc1ccc(C#CCN(C(=O)Cc2ncc(C(F)(F)F)cc2C(F)(F)F)c2ccc(F)cc2)nn1,IC50,second compound 0.0316 µM,> 10000 nM
same,IC50,second compound 0.1 µM,> 10000 nM
same,IC50,second compound 0.316 µM,> 10000 nM
same,IC50,second compound 1 µM,> 10000 nM
same,IC50,second compound 3.16 µM,> 10000 nM
same,IC50,second compound 10 µM,> 10000 nM
same,"viability, T/C",[1],108%
same,"viability, T/C",[2],104%
same,"viability, T/C",[3],100%
same,"viability, T/C",[4],99.9%
same,"viability, T/C","second compound 0.0316 µM, first compound 3.16 µM",95.3%
same,"viability, T/C","second compound 0.0316 µM, first compound 10 µM",82%
same,"viability, T/C",[5],108%
same,"viability, T/C",[6],103%
same,"viability, T/C",[7],94.4%
same,"viability, T/C",[8],93.7%
same,"viability, T/C","second compound 0.1 µM, first compound 3.16 µM",84.6%
same,"viability, T/C","second compound 0.1 µM, first compound 10 µM",94.8%
same,"viability, T/C",[9],106%
same,"viability, T/C",[10],111%
same,"viability, T/C",[11],104%
same,"viability, T/C",[12],98.3%
same,"viability, T/C","second compound 0.316 µM, first compound 3.16 µM",93.5%
same,"viability, T/C","second compound 0.316 µM, first compound 10 µM",98.9%
same,"viability, T/C",[13],104%
same,"viability, T/C",[14],98.2%
same,"viability, T/C",[15],103%
same,"viability, T/C",[16],104%
same,"viability, T/C","second compound 1 µM, first compound 3.16 µM",93.2%
same,"viability, T/C","second compound 1 µM, first compound 10 µM",99.3%
same,"viability, T/C",[17],96.7%
same,"viability, T/C",[18],94.4%
same,"viability, T/C",[19],98.8%
same,"viability, T/C",[20],90.1%
same,"viability, T/C","second compound 3.16 µM, first compound 3.16 µM",98.5%
same,"viability, T/C","second compound 3.16 µM, first compound 10 µM",95.3%
same,"viability, T/C",[21],108%
same,"viability, T/C",[22],103%
same,"viability, T/C",[23],97.3%
same,"viability, T/C",[24],91.3%
same,"viability, T/C","second compound 10 µM, first compound 3.16 µM",112%
same,"viability, T/C","second compound 10 µM, first compound 10 µM",98.9%
